{"source": "paper PMC6018403", "about": "(Frontiers in Pharmacology, 2018)", "system": "Caco-2 cell monolayer", "test": "Caco-2 cell monolayer permeability test (bidirectional transport of berberine)", "type": "in vitro ADME, Human", "settings": "BER 5 μM", "protocol": "The final concentration of GQD, GQD−GC, and Huang-Lian water extracts were 32, 28, and 6 μg/mL, respectively. […]\ncontaining glucose (25 mM) and HEPES (10 mM). The final concentration of berberine was 5 µM. The final concentration of DMSO was below 1% (v/v). […]\ninducer of Caco-2 cells, respectively. For the inhibitor experiments, the Caco-2 cells were cultivated in DMEM until the 21st day. After removal of the medium, the cells were incubated for 30 minutes with HBSS containing 5 µM of verapamil. For the inducer experiments, the cells were cultivated in DMEM until the 18th day, and then […]\nwas removed on the 21st day, and the cells were then incubated for 30 min with HBSS.\nBerberine and glycyrrhizic acid were added to the system following HBSS incubation.\nFor all bidirectional transport assays, samples (300 µL) were collected after 30, 60, 90, […]\nwith an equal volume of HBSS. The samples were freeze-dried and then dissolved in 300 µL of methanol. The solutions were filtered through 0.22-µm membranes before […]\n3. Inhibitor and inducer experiments […]\nrespectively. For the inhibition experiments, Caco-2 cells were cultivated in DMEM until the 21st day. After removal of the medium, the cells were incubated for 30 minutes with HBSS containing verapamil (5 µM). For induction experiments, the cells were cultivated in DMEM until the 18th day, and then cultivated in DMEM […]\nThe medium was removed on the 21st day, and the cells were then incubated for 30 min with HBSS. Berberine and glycyrrhizic acid were added to the system following HBSS incubation.", "data": [{"smiles": "COc1ccc2cc3[n+](cc2c1OC)CCc1cc2c(cc1-3)OCO2", "note": "[Compound 24, berberine]", "values": [{"measurement": "transport rate of BER, PAB (influx, apical to basolateral)", "setting": "with GLY 5 μM", "value": 84, "unit": "%"}, {"measurement": "transport rate of BER, PBA (efflux)", "setting": "with GLY 5 μM", "value": 10, "unit": "%"}, {"measurement": "transport rate of BER, PAB (influx, apical to basolateral)", "setting": "without GLY", "value": 59, "unit": "%"}, {"measurement": "transport rate of BER, PBA (efflux)", "setting": "without GLY", "value": 34, "unit": "%"}]}]}
